US11638424B2, “Mosquito attractant formulations and uses thereof” (priority 2017, dated 2023)

What was measured:
[1] = system: Plasmodium falciparum (NF54 strain); test: Mosquito infectious feed (P. falciparum oocyst and sporozoite infection in mosquitoes); assay type: in vivo
Description: A strain of the human malaria parasite P. falciparum, denoted NF54 (T. Ponnudurai, et al., Trop Geogr Med, 33, 50-54 (1981); kindly donated by Klays Berzins, Stockholm University), known to produce gametocytes infectious to mosquitoes (D. Walliker, paper presented at the Symposia on Molecular and Cellular Biology New Series 42, UCLA (1987)), was used for all experimental infections. Parasites were cultured in vitro according to standard protocols (W. Trager and J. B. Jensen, Science, 193, 673-675 (1976)) at 5% haematocrit in complete RPMI-1640 medium with 10% human serum under a gas environment of 1% O2, 3% CO2 and 96% N2 (Labline, Goteborg, Sweden). The culture medium was replaced daily and parasitaemia assessed using Giemsa staining every two days (ibid.). When the parasitaemia reached ˜6% (approximately 2 days after initiating the culture), cultures were diluted with a freshly made 5% haematocrit mixture of RBCs/complete medium. Asexual, synchronised trophozoites were fed to mosquitoes at 5% parasitaemia.
Plasmodium falciparum gametocyte cultures (NF54 strain) were set up at 0.5-0.7% parasitaemia, 6% haematocrit in complete RPMI medium, according to standard procedures (R. Carter, et al. Methods Mol Biol, 21, 67-88 (1993)). For each infectious feeding, a mixture of gametocytes from 14- and 17-day gametocyte cultures were used (ibid.). On the day of experimental infection, uninfected RBCs were supplemented with P. falciparum gametocytes to a final gametocytaemia of approximately 3%, which is known to generate good infection prevalence (>50% in A. gambiae s.s. mosquitoes; ibid.). To measure the effect of HMBPP on parasite infectiousness, two groups of approximately 210 mosquitoes were fed on mature gametocyte-infected red blood cells (giRBCs) with or without HMBPP using a membrane feeder, as previously described (ibid.). Gametocyte density was kept equal in control and treatments. To give the final gametocytaemia of 3% in each tubes, on the day of feed, the final mature gametocytaemia was calculated in cultures and then the volume of gametocyte inoculum was estimated per 1 ml of blood. The gametocyte inoculum was prepared using an equal volume (˜400 μl) of the gametocyte mixture was added to 1 ml of each of the blood treatments (with/without HMBPP). Adding a fixed volume of well-mixed gametocyte culture to a fixed volume of each blood treatment, it was ensured that parasite density (no. gametocytes per ml) was constant in both groups.

A. gambiae sensu lato = test: Dual choice attraction bioassay (Y-tube olfactometer); assay type: in vivo; conditions: FIG. 1A
Description: Mosquitoes used in this study were from the laboratory colony of A. gambiae sensu lato (Keele line, University of Glasgow), which was produced by balanced interbreeding of four A. gambiae s.s. strains (H. Hurd, et al. Evolution, 59, 2560-2572 (2005)). Larvae were reared under standard insectary conditions (27±1° C., 70% humidity, 12 h light: 12 h dark cycle) and fed on TetraMin fish flakes (Tetra ltd., Germany). Pupae were transferred into holding cages for emergence. Emerged adults were fed ad libitum on 5% glucose solution, supplemented with 0.05% (w/v) 4-aminobenzoic acid (PABA, Sigma-Aldrich), through soaked filters on top of the 2 ml tubes and with soaked filter pads inside cages. Red blood cells (RBCs) were washed with Roswell Park Memorial Institute (RPMI) medium and stored in RPMI at 50% haematocrit at 4° C. until use. To measure the effect of HMBPP on mosquito fitness, RBCs stored in RPMI were centrifuged at 2500×g for 5 min followed by replacement of the medium with AB serum for a final haematocrit of 40%. HMBPP (stock concentration at 4 mM in Nanopure water, stored at −80° C.) was diluted to 10 μM in 1 ml RBC suspension, and the corresponding volume of Nanopure water was added to the control RBCs. All experiments were, unless otherwise stated, conducted on 5-7 days post-emergence female mosquitoes maintained in separated cages (approximately 210 individuals per cohort) and fed RBCs either with or without HMBPP for 30 min. All experiments were performed in triplicates.
Initial experiments were performed using a Y-tube olfactometer (length of the central cylinder and two arms: 25/15/15 cm respectively, inner diameter: 5 cm; see FIG. 1a). For each experiment, 180 female mosquitoes were individually placed in a release chamber and flown one by one. Females flew towards the upwind end (airflow 3 L min^−1) and entered one of two trapping chambers through which odour released from nearby membrane feeders passed (5 cm distance to each trapping chamber). Three experiments were conducted. In the first experiment, the membrane feeders were loaded with RBCs with or without HMBPP, while in the second they were loaded with serum with or without HMBPP. The third experiment was performed with a 5% glucose with 0.05% PABA solution with or without HMBPP. To control for possible spatial effects, the location of treatment at each olfactometer arm was switched every 30 minutes (˜15 mosquitoes flied one by one in each 30 minutes). Each replacement (feeder rotation with fresh RBCs) was counted as an experimental replicate (experimental block). Mosquitoes reaching any of the trapping chambers were considered to have made a choice. Each experiment was repeated six times with in total 180 mosquitoes per treatment.

A. gambiae s.l. = test: Olfactometer bioassay (larger Y-tube olfactometer / wind tunnel assay); assay type: in vivo; conditions: larger Y-tube olfactometer, FIG. 2A
Description: Behavioural experiments were performed using different odour sources with and without pulsed CO2 stimuli in a Plexiglas Y shaped olfactometer (9.5 cm i.d.×length of the central cylinder and two arms: 120/120/120 cm respectively), illuminated from above at 280 lx. A charcoal-filtered and humidified air stream (25±2° C., RH 65±2%) passed through stainless steel mesh screens at 30 cm s^−1 to generate a laminar flow in the olfactometer. Odors were introduced into the air stream of each arm at the downwind end. […] Odor sources consisted of either RBC-based treatments or headspace extracts. RBC-based treatments included RBCs alone, hRBCs, giRBCs or ippRBCs (RBCs supplemented with HMBPP, gametocytes or IPP), as well as RBCs with supernatants from gametocyte-infected RBCs, or RBCs supplemented with the synthetic odour blend. Headspace extracts collected from hRBCs and giRBCs were used. Treatments including RBCs were heated to 37° C. prior to being pumped (150 ml min^−1) into the airstream of each arm separately. The blend and headspace extracts were delivered to each arm via a wick dispenser. Carbon dioxide (Strandmöllen) was introduced into a plume generator that was placed behind the metal screens to create a homogenous-pulsed flow, which was regulated by a stimulus controller (SEC-2/b, Syntech, Löptin Germany). […]

human Vγ9Vδ2 T-cells = conditions: cited from earlier work

## C/C(=C\COP(=O)(O)OP(=O)(O)O)CO [HMBPP, (E)-4-hydroxy-3-methyl-but-2-enyl pyrophosphate]
[1]; giRBCs with additional HMBPP, gametocyte density 3%
  oocyst prevalence (proportion of oocyst-carrying mosquitoes): ~100%
[1]; giRBCs with vs without HMBPP
  sporozoite intensity (number of sporozoites per salivary gland): significantly higher
[1]; giRBCs with vs without HMBPP, 10 dpi, FIG. 3D
  oocyst intensity (number of oocyst per midgut): higher
[1]; giRBCs with vs without HMBPP, 14 dpi, FIG. 3E
  sporozoite prevalence (proportion of sporozoite-carrying mosquitoes): significantly higher
[1]; giRBCs with vs without additional HMBPP
  oocyst prevalence, difference between treatments: not significantly different
A. gambiae sensu lato; RBCs with 10 μM HMBPP vs RBCs
  host-seeking mosquitoes that chose HMBPP-supplemented RBCs (hRBCs) over RBCs: 95%
A. gambiae sensu lato; glucose solution (5%) containing PABA 0.05%, with vs without HMBPP
  attraction to HMBPP-supplemented glucose solution: did not, however, increase attraction
A. gambiae sensu lato; serum with vs without HMBPP
  attraction to HMBPP-supplemented serum: did not, however, increase attraction
A. gambiae s.l.
  attraction of mosquitoes to supplemented RBCs versus RBCs: could mimic the attraction of mosquitoes to giRBCs
Human Vγ9Vδ2 T-cells
  activation of human Vγ9Vδ2 T-cells: highly potent activator
